This passage reports AC50 results from PubChem BioAssay AID463229 (Broad Institute, 2010).

Molecules are shown by their SMILES.

The subject of this assay is INS-1E rat beta cells, no cytokines, CellTiter-Glo ATP, 48 h. The assay can be described thus: ATP level change in INS-1E without cytokines, dose response, counter-screen for beta-cell apoptosis protection project, INS-1E rat cells, ATP luminescence, cherry pick (AID 463229). In general terms: The purpose of a counterscreen is to sort out artefacts and off-target activity.
With `Cc1nc2cc(-c3ccccc3)sc2c(=O)n1N`, the half-maximal activity concentration (AC50) – broadly, the concentration giving half of the maximal activity seen – is 3.6 µM.

Take `O=C(NCc1ccccc1)C1=C[C@@H](c2csc3ccccc23)C[C@@H](OCCCCO)O1`: the AC50 was 2.67 µM.

For `COc1ccc(NS(=O)(=O)c2ccc(N3CCCCC3)c(N)c2)cc1`, the AC50 is 4.75 µM.

As to `Cc1ccccc1NC1=C/C(=N\S(=O)(=O)c2cccs2)c2ccccc2C1=O`, the AC50 was 1.79 µM.

With `Clc1cccc(N=C2NN=C(c3ccc4c(c3)OCCO4)CS2)c1`, the AC50 is 1.76 µM.

Regarding `CCOc1ccc(C(=O)c2cc([N+](=O)[O-])ccc2N2CCOCC2)cc1`, the AC50 is 0.371 µM.

For the compound `c1cnc(N2CCN(Cc3c[nH]c4ccccc34)CC2)nc1`, the AC50 is 4.83 µM.

As to `Clc1ccc(CSc2ccc(-c3ccccn3)nn2)cc1`, the AC50 was 6.32 µM.

`COc1ccc(-c2cc(-c3nc4ccccn4c3NCc3ccccc3)ccc2OC)cc1`: the AC50 is 0.992 µM.

On to `COc1ccc(/C=C/C(=O)c2ccc([N+](=O)[O-])o2)cc1`, for which the AC50 was 12.5 µM.
